In ChEMBL document CHEMBL1154481, “Pharmacophore modeling of diverse classes of p38 MAP kinase inhibitors” (Eur J Med Chem, 2008) one finds IC50 data, which are given here for 21 compounds.

The experiment in a line: Inhibition of p38 MAPK.
Regarding `COc1cc2[nH]ccc2cc1C(=O)N1C[C@H](C)N(Cc2ccccc2)C[C@H]1C`, the IC50 amounted to 1300 nM.
In turn, `O=C(c1cccc2[nH]ccc12)N1CCN(Cc2ccccc2)CC1` gave a concentration for half-maximal inhibition (IC50) of 4700 nM.
The compound `O=c1ccc(-c2c(-c3ccc(F)cc3)nc3ccccn23)nn1-c1c(Cl)cccc1Cl` came in with an IC50 of 49 nM. Against the preceding compound, the IC50 is about 96-fold lower.
To `COC[C@H](C)Nc1cc(-c2c(-c3ccccc3)nc3nc(N)ccn23)ccn1` belongs 2 nM; to `O=C1CCC(c2c(-c3cccc(C(F)(F)F)c3)nc3ccccn23)=NN1c1ccccc1Cl`, 170 nM.
Compound `Nc1ccn2c(-c3ccnc(NCc4ccccc4)c3)c(-c3ccc(F)cc3)nc2n1` had a half-inhibitory concentration (IC50) of 6 nM.
As for `O=C1NCc2nc(Sc3ccccc3)ccc2N1c1c(Cl)cccc1Cl`, half-maximal inhibition (IC50) was put at 270 nM. This IC50 is about 45-fold higher than that of the compound before.
For the compound `Cc1ccccc1-c1nc(N(C(N)=O)c2c(F)cccc2F)c2ncn(C)c2n1`, the IC50 turned out to be 140 nM.
To `Cc1ccc(NC(=O)c2ccnc(N3CCOCC3)c2)cc1Nc1ccnc(OC2CCN(C)CC2)n1` belongs 40 nM; to `O=C1NCc2c(-c3ccc(F)cc3Cl)cc(C3CCN(CC4CCC4)CC3)cc2N1c1c(Cl)cccc1Cl`, 0.6 nM.
Compound `Nc1nc(N)c(F)c(-c2nc(-c3cccc(C(F)(F)F)c3)c(-c3ccncc3)[nH]2)c1F` displayed an IC50 of 470 nM. Compared with the last compound, the IC50 is about 780-fold higher.
`CC(C)(C)N1CCC(c2cc(-c3ccc(F)cc3Cl)c3c(c2)N(c2c(Cl)cccc2Cl)C(=O)NC3)CC1`: half-maximal inhibition (IC50) was put at 0.2 nM.
As to `Cc1ccccc1N1N=C(c2c(-c3ccc(F)cc3F)nc3ccccn23)CCC1=O`, it took 8 nM to reach half-maximal inhibition (IC50). This IC50 is about 40-fold higher than that of the compound before.
For the compound `Nc1ccn2c(-c3ccncn3)c(-c3ccccc3)nc2n1`, the half-maximal inhibitory concentration (IC50) was 990 nM.
To `Fc1ccc(-c2[nH]c3ccc4[nH]c(Cc5ccccc5)nc4c3c2-c2ccncc2)cc1` belongs 22 nM; to `O=C1CCC(c2c(-c3ccc(F)cc3F)nc3ccccn23)=NN1c1c(Cl)cccc1Cl`, 8 nM.
The compound `O=C1NCc2c(-c3ccc(F)cc3Cl)cc(C3CCN(CC4CC4)CC3)cc2N1c1c(Cl)cccc1Cl` gave an IC50 of 0.5 nM. Compared with the last compound, the IC50 is about 16-fold lower.
The compound `COc1ccc(C#CC(C)(C)N)cc1C(=O)c1ccc(Nc2ccc(F)cc2F)cc1` gave an IC50 of 14 nM. Against the preceding compound, the IC50 is about 28-fold higher.
To `Cc1ccccc1Sc1ccc2c(n1)CNC(=O)N2c1c(Cl)cccc1Cl` belongs 110 nM; to `O=C(c1ccc2[nH]cc(CN3CCOCC3)c2c1)N1CCC(Cc2ccccc2)CC1`, 6600 nM.
For the compound `CCN(CC)CCCn1ccc2cc(C(=O)N3CCC(Cc4ccccc4)CC3)c(Cl)cc21`, the IC50 worked out at 200 nM.

In general, IC50 refers to the midpoint of a concentration-inhibition curve.
